Results taken from patent US9540389B2, “Antimicrobial potentiators” (priority 2013, dated 2017).

Key:
E. coli AB1157 ΔacrF = assay: Time-kill assay (CIP and/or EPI); assay type: cell-based, Escherichia coli; details: 25 μM MBX2319 + 1×MIC CIP, 2 hours
Experimental: (§1) Panel (C): Bactericidal activity of CIP alone, 25 μM MBX2319 alone, or 25 μM MBX2319 combined with a bacteriostatic concentration of CIP against E. coli AB1157 and isogenic efflux defective mutants after 2 hours exposure. […] Panel (D): Bactericidal activity of CIP alone, 25 μM MBX2319 alone, 25 μM PAβN alone, and a bacteriostatic concentration of CIP combined with 25 μM MBX2319 or combined with 25 μM PAβN against the following organisms: a) E. coli AB1157, b) E. coli ATCC 25922, c) K. pneumoniae ATCC 700603, d) S. flexneri ATCC 12022, e) S. enterica ATCC 14028, f) E. aerogenes ATCC 13048.
(§2) • Strains and Reagents. The following strains were obtained from the Keio collection (Baba, et al.: Construction of Escherichia coli K-12 in-frame, single-gene knockout mutants: the Keio collection. In Mol Syst Biol, vol. 2, pp. 2006 0008, (2006)): JW0451 (ΔacrB::kan), JW5503 (ΔtolC::kan), JW3234 (ΔacrF::kan), JW2661 (ΔemrB::kan), JW0863 (ΔmacB::kan). The deletion mutations in each of these strains were transferred to AB1157 using P1 phage transduction (see Table 1). The construction of the E. coli cell-based reporter strain (SOS-XXX) that was used for high throughput screening is described in detail in the supplementary information. […] Irgasan was a generous gift from Ciba Speciality Chemicals, Inc. (High Point, N.C.). Hoechst 33342 (H33342) was purchased from Molecular Probes (Eugene, Oreg.). […] Luria Broth (Miller) and agar were purchased as prepared dehydrated media from Becton Dickenson (Franklin Lakes, N.J.). The compound libraries used in high-throughput screens were purchased from Chembridge (San Diego, Calif.), ChemDiv (San Diego, Calif.), and TimTec (Newark, Del.). MBX2319 was synthesized by Microbiotix, Inc. • Antibacterial Activity Assays. The minimal inhibitory concentration (MIC) of antibacterial agents and biocides were determined using the microbroth dilution method essentially as described in the CLSI protocol M7-A7 (CLSI: Method for dilution antimicrobial susceptibility testing for bacteria that grow aerobically; Approved standard-document M7-A7. In Clinical and Laboratory Standards Institute document M7-A7, Clinical and Laboratory Standards Institute, Wayne, Pa., (2006)), with the following exceptions. LB media was used instead of MHB. […] The final concentration of DMSO in each assay was 2%. […] MIC assays were performed in triplicate and the geometric mean was calculated. […] Viability was monitored over 2-4 hours by making serial dilutions in saline and spotting 5 μl of each dilution onto the surface of an LB agar plate in triplicate. Colonies were counted after the plates were incubated at 37° C. for 16-18 hr, colony forming units (CFU) per ml were calculated, and the average and standard deviation for the three replicates was determined. […]

E. coli AB1157 = assay: Time-kill assay (CIP and/or EPI); assay type: cell-based, Escherichia coli
Experimental: as §1, §2

[1] = tested on: K. pneumoniae ATCC 700603; assay: Time-kill assay (CIP and/or EPI); assay type: cell-based; details: Klebsiella pneumoniae; 25 μM EPI + CIP 0.5 or 1×MIC
Experimental: as §1
(§3) • Strains and Reagents. The following strains were obtained from the Keio collection (Baba, et al.: Construction of Escherichia coli K-12 in-frame, single-gene knockout mutants: the Keio collection. In Mol Syst Biol, vol. 2, pp. 2006 0008, (2006)): JW0451 (ΔacrB::kan), JW5503 (ΔtolC::kan), JW3234 (ΔacrF::kan), JW2661 (ΔemrB::kan), JW0863 (ΔmacB::kan). The deletion mutations in each of these strains were transferred to AB1157 using P1 phage transduction (see Table 1). […] The minimal inhibitory concentration (MIC) of antibacterial agents and biocides were determined using the microbroth dilution method essentially as described in the CLSI protocol M7-A7 (CLSI: Method for dilution antimicrobial susceptibility testing for bacteria that grow aerobically; Approved standard-document M7-A7. In Clinical and Laboratory Standards Institute document M7-A7, Clinical and Laboratory Standards Institute, Wayne, Pa., (2006)), with the following exceptions. […] MIC assays were performed in triplicate and the geometric mean was calculated. […] Viability was monitored over 2-4 hours by making serial dilutions in saline and spotting 5 μl of each dilution onto the surface of an LB agar plate in triplicate. Colonies were counted after the plates were incubated at 37° C. for 16-18 hr, colony forming units (CFU) per ml were calculated, and the average and standard deviation for the three replicates was determined. […]

S. enterica ATCC 14028 = assay: Time-kill assay (CIP and/or EPI); assay type: cell-based; details: Salmonella enterica; 25 μM EPI + CIP 0.5 or 1×MIC
Experimental: as §1, §3

E. aerogenes ATCC 13048 = assay: Time-kill assay (CIP and/or EPI); assay type: cell-based; details: Enterobacter aerogenes; 25 μM EPI + CIP 0.5 or 1×MIC
Experimental: as §1, §3

AcrAB-TolC efflux pump = AcrAB-TolC efflux pump (Escherichia coli, UniProt P31224); assay: H33342 accumulation assay; assay type: cell-based, Escherichia coli 285; design: endogenous in cells; host or cells: E. coli strains 285 and 287 (ciprofloxacin-resistant mutants of AB1157); details: hyper-efflux strain 285
AcrAB-TolC efflux pump, sequence (P31224 whole entry): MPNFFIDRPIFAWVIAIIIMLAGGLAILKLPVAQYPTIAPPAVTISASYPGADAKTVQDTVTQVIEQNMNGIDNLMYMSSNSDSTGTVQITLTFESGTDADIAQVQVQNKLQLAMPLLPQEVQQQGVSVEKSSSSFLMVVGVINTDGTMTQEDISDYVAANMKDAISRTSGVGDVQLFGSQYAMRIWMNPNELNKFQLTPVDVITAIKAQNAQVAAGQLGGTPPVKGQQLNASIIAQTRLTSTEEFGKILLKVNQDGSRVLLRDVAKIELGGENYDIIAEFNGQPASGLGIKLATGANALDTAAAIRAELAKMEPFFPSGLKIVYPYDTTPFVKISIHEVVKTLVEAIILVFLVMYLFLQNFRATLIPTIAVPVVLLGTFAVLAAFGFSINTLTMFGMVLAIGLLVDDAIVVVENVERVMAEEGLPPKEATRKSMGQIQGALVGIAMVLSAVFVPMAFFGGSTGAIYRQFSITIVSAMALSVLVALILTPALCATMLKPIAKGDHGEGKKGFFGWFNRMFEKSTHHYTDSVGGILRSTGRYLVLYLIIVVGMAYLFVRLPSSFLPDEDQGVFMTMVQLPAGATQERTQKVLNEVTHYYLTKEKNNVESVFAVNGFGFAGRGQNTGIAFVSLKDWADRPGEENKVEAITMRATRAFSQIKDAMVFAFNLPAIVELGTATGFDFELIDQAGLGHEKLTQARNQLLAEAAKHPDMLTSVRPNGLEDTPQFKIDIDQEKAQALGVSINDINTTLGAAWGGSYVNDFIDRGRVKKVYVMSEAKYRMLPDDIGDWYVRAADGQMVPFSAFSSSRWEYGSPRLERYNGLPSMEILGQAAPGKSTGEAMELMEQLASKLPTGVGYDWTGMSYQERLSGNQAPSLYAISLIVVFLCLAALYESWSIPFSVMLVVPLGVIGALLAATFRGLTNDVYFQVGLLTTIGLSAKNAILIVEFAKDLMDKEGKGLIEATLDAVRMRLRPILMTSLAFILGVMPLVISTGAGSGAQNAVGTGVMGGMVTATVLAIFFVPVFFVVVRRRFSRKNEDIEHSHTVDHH
AcrAB-TolC efflux pump, sequence (P0AE06 25-397, further chain): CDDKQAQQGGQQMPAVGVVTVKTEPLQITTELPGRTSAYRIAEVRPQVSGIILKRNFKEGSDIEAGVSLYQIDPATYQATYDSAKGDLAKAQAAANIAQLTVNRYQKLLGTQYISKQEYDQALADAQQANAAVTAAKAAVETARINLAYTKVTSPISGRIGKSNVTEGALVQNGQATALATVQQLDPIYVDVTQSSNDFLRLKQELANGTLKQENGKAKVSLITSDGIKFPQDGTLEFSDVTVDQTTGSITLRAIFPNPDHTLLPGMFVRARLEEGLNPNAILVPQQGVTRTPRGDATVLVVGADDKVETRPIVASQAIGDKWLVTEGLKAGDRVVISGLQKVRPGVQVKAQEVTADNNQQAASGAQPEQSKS
AcrAB-TolC efflux pump, sequence (P02930 23-493, further chain): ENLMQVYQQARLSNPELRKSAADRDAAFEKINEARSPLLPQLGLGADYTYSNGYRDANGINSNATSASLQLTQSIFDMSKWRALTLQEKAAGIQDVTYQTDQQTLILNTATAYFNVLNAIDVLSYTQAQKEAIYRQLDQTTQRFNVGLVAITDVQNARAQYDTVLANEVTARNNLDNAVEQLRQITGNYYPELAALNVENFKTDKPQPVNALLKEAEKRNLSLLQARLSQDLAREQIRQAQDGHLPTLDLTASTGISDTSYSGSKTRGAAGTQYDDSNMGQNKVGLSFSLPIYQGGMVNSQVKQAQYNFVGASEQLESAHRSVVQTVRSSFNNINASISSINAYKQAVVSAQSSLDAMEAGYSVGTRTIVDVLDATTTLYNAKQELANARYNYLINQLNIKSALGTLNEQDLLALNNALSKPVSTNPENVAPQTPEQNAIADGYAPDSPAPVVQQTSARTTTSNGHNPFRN

CC1(C)Cc2c(C#N)c(SCCc3ccccc3)nc(N3CCOCC3)c2CO1 [MBX2319]
potentiation of the bactericidal activity of CIP (E. coli AB1157 ΔacrF): potentiated the bactericidal activity of CIP | decreased viability (CFU/ml) as compared to 1×MIC CIP alone (E. coli AB1157; 3.13 μM MBX2319 + […] CIP, 4 hr exposure): 10,000 fold | effect on bactericidal activity of […] CIP (1×MIC) (E. coli AB1157; MBX2319 up to 3.13 μM, dose-dependent, PAβN as high as 100 μM): increased the bactericidal activity | effect on growth, compound alone (E. coli AB1157; alone at concentrations up to 50 μM): did not affect growth | decreased viability as compared to CIP alone [1]: 100-1000 fold | decreased viability as compared to CIP alone (S. enterica ATCC 14028): 100-1000 fold | decreased viability as compared to CIP alone (E. aerogenes ATCC 13048): 100-1000 fold | H33342 accumulation (AcrAB-TolC efflux pump): increased H33342 accumulation
